This is an account of results in PMC5535261 (Journal of Medicinal Chemistry, 2017).

One data set in a line: physchem. As to conditions: pH 7.4.
Data set [1] deals with P. berghei-infected female Swiss Webster mice. The settings on record: oral; for 50% curative dose (PD50): free bases, 4 daily doses, estimated from dose–efficacy study (Table 3); for mouse survival extended compared to vehicle-treated control animals: one or two daily doses of 4 mg/kg.
Data set [2] in a line: Mouse liver microsome stability. The settings on record: for T1/2 (min) no NADPH / half-life: mouse liver microsomes; for microsomal CLint / half-life: mouse, microsomes. (In general: Microsomes from liver hold many membrane-bound enzymes, among them those of drug oxidation.)
Data set [3] deals with W2 P. falciparum parasites. Description: Plasmodium falciparum growth inhibition assay. As to conditions: 12f vs 2f.
Data set [4] concerns similar models (P. berghei-infected mice). As to conditions: single dose 20 mg/kg; cited from earlier work.
Where [5] appears, read: T1/2 (min), half-life when incubated with mouse liver microsomes.

Usually solubility (kinetic) stands for solubility judged after dilution from a stock solution rather than from solid. Broadly, the microsomal CLint is the rate of metabolic loss divided by the concentration. Read a low microsomal CLint as greater metabolic stability. The term half-life denotes the time needed for the level to fall by half in the phase considered. A high value points to slow loss.

≈ marks a conversion by molar mass, not a printed value.

The compound `CC(C)(N)CNC(=O)C[C@H]1CC[C@]2(CC1)OO[C@]1(O2)C2CC3CC(C2)CC1C3` [2a, arterolane, reference compound] displayed a solubility (kinetic) in the data set “physchem” of 433 µM (≈ 170 µg/mL). The “50% curative dose (PD50)” value in data set [1] was ~4 mg kg^–1 day^–1. In data set [2] (no NADPH), the “T1/2 (min) no NADPH” value is “stable”.

Regarding `NC(=O)CNC(=O)C[C@H]1CC[C@]2(CC1)OO[C@]1(O2)C2CC3CC(C2)CC1C3` [2b, reference compound], the “T1/2 (min) no NADPH” value in data set [2] (no NADPH) is given as “stable”.

Regarding `CC(C)(CN)CNC(=O)C[C@H]1CC[C@]2(CC1)OO[C@]1(O2)C2CC3CC(C2)CC1C3` [2d, reference compound], the “T1/2 (min) no NADPH” value in data set [2] (no NADPH) is “stable”.

For `NC1CCN(C(=O)C[C@H]2CC[C@]3(CC2)OO[C@]2(O3)C3CC4CC(C3)CC2C4)CC1` [2i, reference compound], the “T1/2 (min) no NADPH” value in data set [2] (no NADPH) is “stable”.

In the case of `CC(C)(N)CNC(=O)C[C@@H]1CCC[C@]2(C1)OOC1(O2)C2CC3CC(C2)CC1C3` (stereo partly drawn) [12a], the solubility (kinetic) in “physchem” was found to be 429 µM (≈ 168 µg/mL). In addition, the “50% curative dose (PD50)” value in data set [1] is on record as ~6 mg kg^–1 day^–1. Besides, the “T1/2 (min) no NADPH” value in data set [2] (no NADPH) is on record as “stable”. Further, in data set [2], the microsomal CLint was 4.1 µL/min/mg. In data set [2] (setting [5]), this compound displayed a half-life of 2.82 h.

Take `NC(=O)CNC(=O)C[C@@H]1CCC[C@]2(C1)OOC1(O2)C2CC3CC(C2)CC1C3` (stereo partly drawn) [12b]: the “T1/2 (min) no NADPH” value in data set [2] (no NADPH) is given as “stable”. For the same compound, the microsomal CLint in data set [2] was found to be 18.6 µL/min/mg. The compound also gave a half-life in data set [2] (setting [5]) of 0.622 h.

For `NCCNC(=O)C[C@@H]1CCC[C@]2(C1)OOC1(O2)C2CC3CC(C2)CC1C3` (stereo partly drawn) [12c], the “mouse survival extended compared to vehicle-treated control animals” value in data set [1] lay in the range of 3 to 6 days. In data set [2], this compound displayed a microsomal CLint of 8.2 µL/min/mg. The half-life is 2.27 h in data set [2] (T1/2 (min) no NADPH, no NADPH) and 1.41 h in data set [2] (setting [5]).

`CC(C)(CN)CNC(=O)C[C@@H]1CCC[C@]2(C1)OOC1(O2)C2CC3CC(C2)CC1C3` (stereo partly drawn) [12d]: the “T1/2 (min) no NADPH” value in data set [2] (no NADPH) is recorded as “stable”. In data set [2], this compound came in with a microsomal CLint of 10.8 µL/min/mg. This compound also yielded a half-life in data set [2] (setting [5]) of 1.07 h.

Turning to `O=C(C[C@@H]1CCC[C@]2(C1)OOC1(O2)C2CC3CC(C2)CC1C3)N1CCOCC1` (stereo partly drawn) [12f], the “fold more potent than cis-4″ regioisomer 2f (EC50, W2)” value in data set [3] turned out to be 3 fold.

Regarding `O=C(C[C@@H]1CCC[C@]2(C1)OOC1(O2)C2CC3CC(C2)CC1C3)N1CCNCC1` (stereo partly drawn) [12g], the “T1/2 (min) no NADPH” value in data set [2] (no NADPH) is reported as “stable”. Besides, the microsomal CLint in data set [2] amounted to 27.2 µL/min/mg. This compound yielded a half-life in data set [2] (setting [5]) of 0.425 h.

In the case of `NC1CCN(C(=O)C[C@@H]2CCC[C@]3(C2)OOC2(O3)C3CC4CC(C3)CC2C4)CC1` (stereo partly drawn) [12i], the “mouse survival extended compared to vehicle-treated control animals” value in data set [1] lay in the range of 3 to 6 days. In data set [2] (no NADPH), the “T1/2 (min) no NADPH” value is recorded as “stable”. In data set [2], this compound had an intrinsic metabolic clearance (microsomal CLint) of 8.2 µL/min/mg. In data set [2] (setting [5]), this compound had a half-life of 1.41 h.

Regarding `c1cc([C@H]2CC[C@]3(CC2)OO[C@]2(O3)C3CC4CC(C3)CC2C4)ccc1OCCN1CCOCC1` [compound 3, artefenomel], in data set [4], the single-dose efficacy result is recorded as “single-dose cures”.
